Test results: ChEMBL document CHEMBL4229569, “Structure-Based Design of 1-Heteroaryl-1,3-propanediamine Derivatives as a Novel Series of CC-Chemokine Receptor 5 Antagonists” (J Med Chem, 2018); call rule not given here

How the values were obtained:
[1] = Drug level in human liver cells assessed as CYP450-mediated compound formation treated with 4,4-Difluoro-N-(3-((1R,3S,5S)-3-(3-isopropyl-5-methyl-4H-1,2,4-triazol-4-yl)-8-azabicyclo[3.2.1]octan-8-yl)-1-(thiophen-3-yl)-propyl)cyclohexane-1-carboxamide by UPLC/Q-TOF mass spectrometric analysis; format: ADME, cell-based; settings: recombinant enzyme
[2] = Drug level in rat liver cells assessed as CYP450-mediated compound formation treated with maraviroc by Q-TOF mass spectrometric analysis; format: ADME, cell-based; settings: recombinant enzyme
[3] = Drug level in human liver cells assessed as CYP450-mediated compound formation treated with maraviroc by Q-TOF mass spectrometric analysis; format: ADME, cell-based; settings: recombinant enzyme
[4] = Drug level in mouse liver cells assessed as CYP450-mediated compound formation treated with 4,4-Difluoro-N-(3-((1R,3S,5S)-3-(3-isopropyl-5-methyl-4H-1,2,4-triazol-4-yl)-8-azabicyclo[3.2.1]octan-8-yl)-1-(thiophen-3-yl)-propyl)cyclohexane-1-carboxamide by UPLC/Q-TOF mass spectrometric analysis; format: ADME, cell-based; settings: recombinant enzyme
[5] = Drug level in dog liver cells assessed as CYP450-mediated compound formation treated with maraviroc by Q-TOF mass spectrometric analysis; format: ADME, cell-based, Canis lupus familiaris; settings: recombinant enzyme
[6] = Drug level in rat liver cells assessed as CYP450-mediated compound formation treated with 4,4-Difluoro-N-(3-((1R,3S,5S)-3-(3-isopropyl-5-methyl-4H-1,2,4-triazol-4-yl)-8-azabicyclo[3.2.1]octan-8-yl)-1-(thiophen-3-yl)-propyl)cyclohexane-1-carboxamide by UPLC/Q-TOF mass spectrometric analysis; format: ADME, cell-based; settings: recombinant enzyme
[7] = Drug level in dog liver cells assessed as CYP450-mediated compound formation treated with 4,4-Difluoro-N-(3-((1R,3S,5S)-3-(3-isopropyl-5-methyl-4H-1,2,4-triazol-4-yl)-8-azabicyclo[3.2.1]octan-8-yl)-1-(thiophen-3-yl)-propyl)cyclohexane-1-carboxamide by UPLC/Q-TOF mass spectrometric analysis; format: ADME, cell-based, Canis lupus familiaris; settings: recombinant enzyme
[8] = Tmax in Sprague-Dawley rat at 20 mg/kg, po by LC-MS/MS analysis; format: ADME, organism-based; settings: in vivo
in vitro [9] = settings: human, PBMC
Description: Therapeutic index, ratio of CC50 for human PBMC to IC50 for CCR5-dependent HIV1 SF162 infected in human PBMC cells

[10] = Tmax in Sprague-Dawley rat at 10 mg/kg, iv by LC-MS/MS analysis; format: ADME, organism-based; settings: in vivo
[11] = MRT in Sprague-Dawley rat at 10 mg/kg, iv by LC-MS/MS analysis; format: ADME, organism-based; settings: in vivo
[12] = Tmax in dog at 15 mg/kg, po by LC-MS/MS analysis; format: ADME, organism-based, Canis lupus familiaris; settings: in vivo
in vitro [13] = settings: human, PM1 cells
Description: Therapeutic index, ratio of CC50 for human PM1 cells to IC50 for CCR5-dependent HIV1 Ba-L infected in human PM1 cells

[14] = Clearance in Sprague-Dawley rat at 10 mg/kg, iv by LC-MS/MS analysis; format: ADME, organism-based; settings: in vivo
[15] = AUC (0 to infinity) in Sprague-Dawley rat at 20 mg/kg, po by LC-MS/MS analysis; format: ADME, organism-based; parameters: dose 20 mg/kg, route oral, time infinity; settings: in vivo
[16] = Clearance in dog at 3 mg/kg, iv by LC-MS/MS analysis; format: ADME, organism-based, Canis lupus familiaris; settings: in vivo
Cytochrome P450 2C19 = Cytochrome P450 2C19 (Homo sapiens, UniProt P33261); test: Inhibition of CYP2C19 (unknown origin); format: ADME
Chain of Cytochrome P450 2C19 (P33261 whole entry): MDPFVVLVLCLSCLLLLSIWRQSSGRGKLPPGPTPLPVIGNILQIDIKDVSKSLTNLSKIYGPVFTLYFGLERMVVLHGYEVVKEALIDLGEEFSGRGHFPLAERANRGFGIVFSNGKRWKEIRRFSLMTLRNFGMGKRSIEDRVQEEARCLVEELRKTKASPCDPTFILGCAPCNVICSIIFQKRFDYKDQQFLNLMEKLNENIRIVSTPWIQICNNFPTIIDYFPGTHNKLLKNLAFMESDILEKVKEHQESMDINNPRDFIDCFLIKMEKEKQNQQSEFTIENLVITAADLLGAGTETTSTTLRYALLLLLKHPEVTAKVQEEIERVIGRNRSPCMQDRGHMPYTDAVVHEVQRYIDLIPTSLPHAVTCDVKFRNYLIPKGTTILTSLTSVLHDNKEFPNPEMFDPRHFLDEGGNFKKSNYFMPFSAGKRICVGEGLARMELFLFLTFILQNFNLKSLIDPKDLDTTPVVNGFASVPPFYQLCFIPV

in vitro [17] = settings: human, PBMC; remark: listed apart in the source
Description: Therapeutic index, ratio of CC50 for human PBMC to IC50 for CCR5-dependent HIV1 Ba-L infected in human PBMC

[18] = AUC (0 to infinity) in dog at 15 mg/kg, po by LC-MS/MS analysis; format: ADME, organism-based, Canis lupus familiaris; parameters: dose 15 mg/kg, time infinity, route oral; settings: in vivo
in vitro [19] = settings: human, PBMC; remark: listed apart in the source
Description: Therapeutic index, ratio of CC50 for human PBMC to IC50 for CCR5-dependent HIV1 KM018 infected in human PBMC

[20] = tested on: Human immunodeficiency virus 1; test: microbe, parasite or virus in culture; settings: Human immunodeficiency virus 1, SF162, PBMC, 168 h
Description: Antiviral activity against CCR5-dependent HIV1 SF162 infected in human PBMC assessed as reduction in virus infection measured after 7 days by luciferase reporter gene assay

[21] = AUC (0 to infinity) in Sprague-Dawley rat at 10 mg/kg, iv by LC-MS/MS analysis; format: ADME, organism-based; parameters: dose 10 mg/kg, time infinity, route intravenous; settings: in vivo
[22] = tested on: Human immunodeficiency virus 1; test: microbe, parasite or virus in culture; settings: Human immunodeficiency virus 1, Ba-L, PM1, 120 h
Description: Antiviral activity against CCR5-dependent HIV1 Ba-L infected in human PM1 cells assessed as reduction in virus infection measured after 5 days by luciferase reporter gene assay

[23] = Oral bioavailability in Sprague-Dawley rat at 20 mg/kg by LC-MS/MS analysis; format: ADME, organism-based; settings: in vivo
[24] = Half life in Sprague-Dawley rat at 20 mg/kg, po by LC-MS/MS analysis; format: ADME, organism-based; settings: in vivo
Cytochrome P450 1A2 = molecular target: T1, Cytochrome P450 1A2 (Homo sapiens, UniProt P05177); test: Inhibition of CYP1A2 (unknown origin); format: ADME
T1 sequence (P05177 whole entry): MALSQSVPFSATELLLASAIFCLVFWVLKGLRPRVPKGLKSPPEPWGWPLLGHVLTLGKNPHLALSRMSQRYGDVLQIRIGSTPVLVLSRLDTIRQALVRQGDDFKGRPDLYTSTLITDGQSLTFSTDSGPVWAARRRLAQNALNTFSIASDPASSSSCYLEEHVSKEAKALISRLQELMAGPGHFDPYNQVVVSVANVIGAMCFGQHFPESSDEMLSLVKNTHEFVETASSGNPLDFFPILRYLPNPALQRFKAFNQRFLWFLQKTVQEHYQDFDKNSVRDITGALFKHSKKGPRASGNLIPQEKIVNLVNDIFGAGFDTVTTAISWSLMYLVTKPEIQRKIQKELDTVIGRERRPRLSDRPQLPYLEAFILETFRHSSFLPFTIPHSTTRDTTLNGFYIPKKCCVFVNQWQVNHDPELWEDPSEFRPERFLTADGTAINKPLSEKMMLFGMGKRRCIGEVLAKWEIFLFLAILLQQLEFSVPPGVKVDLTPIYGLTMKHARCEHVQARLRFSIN

[25] = MRT in Sprague-Dawley rat at 20 mg/kg, po by LC-MS/MS analysis; format: ADME, organism-based; settings: in vivo
[26] = Cmax in Sprague-Dawley rat at 20 mg/kg, po by LC-MS/MS analysis; format: ADME, organism-based; parameters: dose 20 mg/kg, route oral; settings: in vivo
[27] = tested on: Human immunodeficiency virus 1; test: microbe, parasite or virus in culture; settings: Human immunodeficiency virus 1, Ba-L, PBMC, 168 h
Description: Antiviral activity against CCR5-dependent HIV1 Ba-L infected in human PBMC assessed as reduction in virus infection measured 7 days by luciferase reporter gene assay

Cytochrome P450 2C9 = Cytochrome P450 2C9 (Homo sapiens, UniProt P11712); test: Inhibition of CYP2C9 (unknown origin); format: ADME
Chain of Cytochrome P450 2C9 (P11712 whole entry): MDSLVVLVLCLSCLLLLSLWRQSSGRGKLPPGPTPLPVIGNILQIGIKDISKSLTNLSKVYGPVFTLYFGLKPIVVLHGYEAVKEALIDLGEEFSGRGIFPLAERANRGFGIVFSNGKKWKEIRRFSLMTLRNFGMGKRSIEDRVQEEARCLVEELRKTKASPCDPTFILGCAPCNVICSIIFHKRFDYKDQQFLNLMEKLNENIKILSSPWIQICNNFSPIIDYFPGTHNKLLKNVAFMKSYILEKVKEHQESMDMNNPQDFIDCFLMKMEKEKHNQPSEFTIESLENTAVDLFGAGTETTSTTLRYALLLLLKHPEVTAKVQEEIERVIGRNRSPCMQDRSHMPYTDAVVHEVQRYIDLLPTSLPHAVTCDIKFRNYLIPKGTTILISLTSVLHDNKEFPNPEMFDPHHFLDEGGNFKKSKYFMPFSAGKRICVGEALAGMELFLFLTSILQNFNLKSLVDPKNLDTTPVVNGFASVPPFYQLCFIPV

[28] = Cmax in Sprague-Dawley rat at 10 mg/kg, iv by LC-MS/MS analysis; format: ADME, organism-based; parameters: dose 10 mg/kg, route intravenous; settings: in vivo
Cytochrome P450 3A4 [29] = molecular target: T2, Cytochrome P450 3A4 (Homo sapiens, UniProt P08684); test: Inhibition of CYP3A4 (unknown origin) using midazolam as substrate; format: ADME
T2 sequence (P08684 whole entry): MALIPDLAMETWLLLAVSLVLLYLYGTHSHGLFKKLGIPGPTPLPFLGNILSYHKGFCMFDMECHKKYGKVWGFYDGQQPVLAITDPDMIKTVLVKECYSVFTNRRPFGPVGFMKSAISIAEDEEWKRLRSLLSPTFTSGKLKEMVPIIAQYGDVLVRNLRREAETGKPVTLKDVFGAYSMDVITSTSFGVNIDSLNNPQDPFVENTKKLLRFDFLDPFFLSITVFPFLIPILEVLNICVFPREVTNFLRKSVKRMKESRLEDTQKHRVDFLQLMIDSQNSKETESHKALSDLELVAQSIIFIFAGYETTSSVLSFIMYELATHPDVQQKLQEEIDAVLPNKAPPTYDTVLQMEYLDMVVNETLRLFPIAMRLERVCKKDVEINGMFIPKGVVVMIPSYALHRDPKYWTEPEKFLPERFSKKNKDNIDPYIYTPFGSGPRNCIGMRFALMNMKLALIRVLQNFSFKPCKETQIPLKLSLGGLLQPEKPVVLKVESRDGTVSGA

[30] = Half life in dog at 15 mg/kg, po by LC-MS/MS analysis; format: ADME, organism-based, Canis lupus familiaris; settings: in vivo
in vitro [31] = settings: human, HOS cells
Description: Therapeutic index, ratio of CC50 for human HOS cells to IC50 for CCR5-dependent HIV1 SF162 infected in human HOS cells

[32] = Cytotoxicity against human TZM-bl cells after 48 hrs by MTT assay; format: cell-based
Cytochrome P450 3A4 [33] = molecular target: T2, Cytochrome P450 3A4; test: Inhibition of CYP3A4 (unknown origin) using testosterone as substrate; format: ADME
[34] = tested on: Human immunodeficiency virus 1; test: microbe, parasite or virus in culture; settings: Human immunodeficiency virus 1, SF162, TZM-bl, 48 h
Description: Antiviral activity against CCR5-dependent HIV1 SF162 infected in human TZM-bl cells assessed as reduction in virus infection measured after 48 hrs post infection by luciferase reporter gene assay

[35] = Cmax in dog at 15 mg/kg, po by LC-MS/MS analysis; format: ADME, organism-based, Canis lupus familiaris; parameters: dose 15 mg/kg, route oral; settings: in vivo
[36] = Oral bioavailability in dog at 15 mg/kg by LC-MS/MS analysis; format: ADME, organism-based, Canis lupus familiaris; settings: in vivo
in vitro [37] = settings: human, TZM-bl cells
Description: Therapeutic index, ratio of CC50 for human TZM-bl cells to EC50 for CCR5-dependent HIV1 SF162 infected in human TZM-bl cells

[38] = molecular target: Voltage-gated inwardly rectifying potassium channel KCNH2 (Homo sapiens, UniProt Q12809); test: Inhibition of human ERG expressed in CHO cells at holding potential of -80 mV after 60 secs by patch clamp assay; format: cell-based
Chain of Voltage-gated inwardly rectifying potassium channel KCNH2 (Q12809 whole entry): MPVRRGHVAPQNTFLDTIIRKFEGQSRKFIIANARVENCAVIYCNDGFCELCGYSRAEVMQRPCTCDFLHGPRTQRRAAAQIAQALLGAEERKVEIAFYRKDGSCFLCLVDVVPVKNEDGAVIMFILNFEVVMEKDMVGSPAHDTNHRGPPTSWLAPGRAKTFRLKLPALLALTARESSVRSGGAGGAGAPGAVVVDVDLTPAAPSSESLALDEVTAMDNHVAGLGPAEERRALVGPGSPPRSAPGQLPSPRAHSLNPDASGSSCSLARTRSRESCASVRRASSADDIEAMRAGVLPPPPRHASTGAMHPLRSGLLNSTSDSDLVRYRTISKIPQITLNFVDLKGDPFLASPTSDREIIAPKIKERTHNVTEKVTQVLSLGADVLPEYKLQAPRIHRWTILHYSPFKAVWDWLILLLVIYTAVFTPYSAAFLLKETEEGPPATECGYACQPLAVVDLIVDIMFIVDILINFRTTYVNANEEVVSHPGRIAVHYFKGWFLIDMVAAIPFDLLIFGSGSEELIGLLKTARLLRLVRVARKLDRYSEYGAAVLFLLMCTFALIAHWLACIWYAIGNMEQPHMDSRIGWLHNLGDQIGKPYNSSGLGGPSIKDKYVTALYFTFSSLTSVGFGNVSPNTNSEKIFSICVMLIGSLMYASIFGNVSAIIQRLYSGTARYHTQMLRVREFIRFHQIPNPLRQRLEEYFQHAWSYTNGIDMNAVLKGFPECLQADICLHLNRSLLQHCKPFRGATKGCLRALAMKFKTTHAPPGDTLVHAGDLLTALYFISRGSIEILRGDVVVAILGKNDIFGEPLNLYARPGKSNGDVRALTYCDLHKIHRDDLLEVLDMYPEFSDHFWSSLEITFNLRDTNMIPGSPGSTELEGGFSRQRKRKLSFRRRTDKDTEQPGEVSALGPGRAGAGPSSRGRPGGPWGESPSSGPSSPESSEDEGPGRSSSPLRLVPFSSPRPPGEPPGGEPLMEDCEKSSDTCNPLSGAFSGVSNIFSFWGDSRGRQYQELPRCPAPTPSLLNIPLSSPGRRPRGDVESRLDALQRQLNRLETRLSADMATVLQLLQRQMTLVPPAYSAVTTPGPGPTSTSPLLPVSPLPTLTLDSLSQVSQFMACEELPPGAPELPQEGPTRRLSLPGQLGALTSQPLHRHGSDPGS

in vitro [39] = settings: human, HOS cells; remark: listed apart in the source
Description: Therapeutic index, ratio of CC50 for human HOS cells to IC50 for CCR5-dependent HIV1 Ba-L infected in human HOS cells

[40] = AUC (0 to infinity) in dog at 3 mg/kg, iv by LC-MS/MS analysis; format: ADME, organism-based, Canis lupus familiaris; parameters: dose 3 mg/kg, route intravenous, time infinity; settings: in vivo
[41] = Half life in dog at 3 mg/kg, iv by LC-MS/MS analysis; format: ADME, organism-based, Canis lupus familiaris; settings: in vivo
Cytochrome P450 2D6 = Cytochrome P450 2D6 (Homo sapiens, UniProt P10635); test: Inhibition of CYP2D6 (unknown origin); format: ADME
Chain of Cytochrome P450 2D6 (P10635 whole entry): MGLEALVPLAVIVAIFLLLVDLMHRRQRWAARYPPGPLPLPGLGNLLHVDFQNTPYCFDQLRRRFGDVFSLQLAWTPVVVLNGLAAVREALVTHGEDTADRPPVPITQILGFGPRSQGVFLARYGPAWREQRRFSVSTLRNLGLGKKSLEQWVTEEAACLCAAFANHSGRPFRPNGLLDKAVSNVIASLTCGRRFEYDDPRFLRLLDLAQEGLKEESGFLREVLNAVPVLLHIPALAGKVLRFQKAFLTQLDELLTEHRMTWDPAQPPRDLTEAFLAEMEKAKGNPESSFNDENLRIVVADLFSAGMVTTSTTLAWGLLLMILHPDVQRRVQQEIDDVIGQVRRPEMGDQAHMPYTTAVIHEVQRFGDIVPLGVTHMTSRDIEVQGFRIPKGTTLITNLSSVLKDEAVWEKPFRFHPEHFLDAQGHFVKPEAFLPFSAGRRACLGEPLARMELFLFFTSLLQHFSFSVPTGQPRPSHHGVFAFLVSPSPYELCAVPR

[42] = Half life in Sprague-Dawley rat at 10 mg/kg, iv by LC-MS/MS analysis; format: ADME, organism-based; settings: in vivo
[43] = tested on: Human immunodeficiency virus 1; test: microbe, parasite or virus in culture; settings: Human immunodeficiency virus 1, KM018, PBMC, 168 h
Description: Antiviral activity against CCR5-dependent HIV1 KM018 infected in human PBMC assessed as reduction in virus infection measured after 7 days by luciferase reporter gene assay

[44] = molecular target: C-C chemokine receptor type 5 (Homo sapiens, UniProt P51681); test: Antagonist activity at CCR5 (unknown origin) expressed in HEK293 cells co-expressing Galpha16 assessed as inhibition of RANTES-induced calcium flux preincubated for 10 mins followed by RANTES addition by fluo-4AM-based fluorescence assay; format: functional, cell-based
Chain of C-C chemokine receptor type 5 (P51681 whole entry): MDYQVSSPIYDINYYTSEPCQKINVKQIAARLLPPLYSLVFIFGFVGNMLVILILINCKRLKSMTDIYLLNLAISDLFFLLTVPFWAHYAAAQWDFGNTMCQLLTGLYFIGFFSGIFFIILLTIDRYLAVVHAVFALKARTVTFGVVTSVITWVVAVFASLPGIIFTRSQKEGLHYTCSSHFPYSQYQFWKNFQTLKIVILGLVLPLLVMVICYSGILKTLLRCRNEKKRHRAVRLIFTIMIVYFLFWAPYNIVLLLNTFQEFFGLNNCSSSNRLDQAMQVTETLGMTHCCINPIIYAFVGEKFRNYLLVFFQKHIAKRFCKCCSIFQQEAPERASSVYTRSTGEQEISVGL

[45] = MRT in dog at 15 mg/kg, po by LC-MS/MS analysis; format: ADME, organism-based, Canis lupus familiaris; settings: in vivo
[46] = tested on: Human immunodeficiency virus 1; test: microbe, parasite or virus in culture; settings: Human immunodeficiency virus 1, SF162, HOS, 120 h
Description: Antiviral activity against CCR5-dependent HIV1 SF162 infected in human HOS cells assessed as reduction in virus infection measured after 5 days by luciferase reporter gene assay

[47] = tested on: Human immunodeficiency virus 1; test: microbe, parasite or virus in culture; settings: Human immunodeficiency virus 1, Ba-L, HOS, 120 h
Description: Antiviral activity against CCR5-dependent HIV1 Ba-L infected in human HOS cells assessed as reduction in virus infection measured after 5 days by luciferase reporter gene assay

[48] = MRT in dog at 3 mg/kg, iv by LC-MS/MS analysis; format: ADME, organism-based, Canis lupus familiaris; settings: in vivo

Cc1nnc(C(C)C)n1[C@@H]1C[C@H]2CC[C@@H](C1)N2CC[C@H](NC(=O)C1CCC(F)CC1)c1ccsc1 (some centres not stated)
Drug uptake [1]: Active
Drug uptake [2]: Active
Drug uptake [3]: Active
Drug uptake [4]: Active
Drug uptake [5]: Active
Drug uptake [6]: Active
Drug uptake [7]: Active

Cc1nnc(C(C)C)n1[C@@H]1C[C@H]2CC[C@@H](C1)N2CC[C@H](NC(=O)C1CCCC1)c1cccs1
Tmax [8]: 2 h
selectivity ratio (in vitro [9]): 6100
Tmax [10]: 0.25 h
MRT [11]: 0.91 h
Tmax [12]: 0.8 h
selectivity ratio (in vitro [13]): 220000
clearance [14]: 66.5 mL/min/kg
AUC(0-inf) [15]: 1670 ng·h/mL
clearance [16]: 46.7 mL/min/kg
IC50 (Cytochrome P450 2C19): > 25000 nM
selectivity ratio (in vitro [17]): 5900
AUC(0-inf) [18]: 2160 ng·h/mL
selectivity ratio (in vitro [19]): 4000
IC50 [20]: 123 nM
AUC(0-inf) [21]: 2500 ng·h/mL
IC50 [22]: 3.4 nM
bioavailability [23]: 33.4%
half-life [24]: 1.65 h
IC50 (Cytochrome P450 1A2): > 25000 nM
MRT [25]: 3.02 h
Cmax [26]: 436 ng/mL
IC50 [27]: 127 nM
IC50 (Cytochrome P450 2C9): > 25000 nM
Cmax [28]: 2220 ng/mL
IC50 (Cytochrome P450 3A4 [29]): > 25000 nM
half-life [30]: 2.5 h
selectivity ratio (in vitro [31]): 25000
CC50 at 48 h [32]: > 200000 nM
IC50 (Cytochrome P450 3A4 [33]): > 25000 nM
IC50 [34]: 1.3 nM
Cmax [35]: 1160 ng/mL
bioavailability [36]: 38.1%
selectivity ratio (in vitro [37]): > 150000
IC50 [38]: 1520 nM
selectivity ratio (in vitro [39]): 330000
AUC(0-inf) [40]: 1100 ng·h/mL
half-life [41]: 0.9 h
IC50 (Cytochrome P450 2D6): 16800 nM
half-life [42]: 1.31 h
IC50 [43]: 190 nM
IC50 [44]: 3.1 nM
MRT [45]: 2.4 h
IC50 [46]: 21 nM
IC50 [47]: 1.6 nM
MRT [48]: 0.7 h
